Activity calls are given as the source filed them. The rule behind the calls is not given here.
Target: Ephrin type-B receptor 4 (Homo sapiens) (UniProt P54760)
Assay: blockers of EphB4 ligand binding – biochemical, TNYL-RAW peptide displacement, dose response (AID 835)
Details: EphB4-ephrin-B2 interaction

Chain of Ephrin type-B receptor 4 (Homo sapiens) (P54760 whole entry, looked up): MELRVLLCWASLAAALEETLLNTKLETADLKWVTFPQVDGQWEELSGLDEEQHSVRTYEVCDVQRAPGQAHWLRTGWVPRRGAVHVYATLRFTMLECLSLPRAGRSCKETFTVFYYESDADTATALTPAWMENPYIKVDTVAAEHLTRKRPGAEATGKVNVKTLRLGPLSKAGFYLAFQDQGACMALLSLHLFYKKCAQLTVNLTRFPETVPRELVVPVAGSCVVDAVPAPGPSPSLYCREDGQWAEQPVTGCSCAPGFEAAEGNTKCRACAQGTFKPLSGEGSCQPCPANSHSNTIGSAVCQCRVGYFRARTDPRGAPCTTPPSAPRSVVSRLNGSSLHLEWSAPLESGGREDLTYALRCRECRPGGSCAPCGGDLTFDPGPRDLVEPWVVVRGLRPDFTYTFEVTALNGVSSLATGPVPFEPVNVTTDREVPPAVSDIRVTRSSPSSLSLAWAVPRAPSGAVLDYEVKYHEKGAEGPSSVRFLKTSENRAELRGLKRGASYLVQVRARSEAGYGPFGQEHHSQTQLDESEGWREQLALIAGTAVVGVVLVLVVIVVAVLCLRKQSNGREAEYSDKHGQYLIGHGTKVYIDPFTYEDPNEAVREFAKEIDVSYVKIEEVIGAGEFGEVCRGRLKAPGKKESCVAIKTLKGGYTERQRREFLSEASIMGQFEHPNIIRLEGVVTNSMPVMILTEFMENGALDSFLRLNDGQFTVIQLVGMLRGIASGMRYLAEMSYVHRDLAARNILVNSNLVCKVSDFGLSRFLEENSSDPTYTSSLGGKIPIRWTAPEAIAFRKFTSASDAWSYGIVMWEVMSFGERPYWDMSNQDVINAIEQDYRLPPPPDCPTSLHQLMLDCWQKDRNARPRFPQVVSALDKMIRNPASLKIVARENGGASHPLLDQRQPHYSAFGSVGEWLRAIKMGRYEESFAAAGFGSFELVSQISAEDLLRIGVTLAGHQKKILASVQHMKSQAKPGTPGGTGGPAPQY

SMILES | IC50
CCCc1[nH]nc2c1C(c1ccc(OC)c(Cn3nnc4ccccc43)c1)C(C#N)=C(N)O2 (centres undefined) | > 79.4 µM (inactive)
Clc1cccc(/C=N/Nc2ncnc3ccccc23)c1 | > 79.4 µM (inactive)
CCn1c(O)c(C=Nc2ccc(N3CCOCC3)cc2)c(=O)n(CC)c1=S | > 79.4 µM (inactive)
CC1=Nc2ccccc2/C1=C\c1nc(-c2ccc(F)cc2)oc1O | > 79.4 µM (inactive)
CC1=Nc2ccccc2/C1=C\c1nc(-c2ccc(C(F)(F)F)cc2)oc1O | > 79.4 µM (inactive)
COC(=O)CSC1=C(C#N)C(c2ccc(C)cc2)C2=C(CCCC2=O)N1 (centres undefined) | > 79.4 µM (inactive)
CCOc1cccc(N2C(=O)CC(=O)NC2=O)c1 | > 79.4 µM (inactive)
CCOC(=O)C1=C(c2ccccc2)N2CCS(=O)(=O)N=C2S1 | > 79.4 µM (inactive)
Oc1[nH]c2ccccc2c1N=Nc1nc2ccccc2s1 | > 79.4 µM (inactive)
